Laboratory results reported in US10538495B2, “Modulators of indoleamine 2,3-dioxygenase” (GLAXOSMITHKLINE INTELLECTUAL PROPERTY DEVELOPMENT LIMITED, priority 2016, dated 2020).
Structures can show the parent of a compound that is named as a salt.

These molecules were tested against indoleamine 2,3-dioxygenase (IDO1) (Homo sapiens, UniProt P14902) (assay: HeLa IDOi assay (kynurenine by mass spectrometry)). Settings: IFN-γ stimulated HeLa cells, 2 days, kynurenine detected by mass spectrometry; read-out: HeLa pIC50 (converted).
Assay type: cell-based
Set-up: human epithelial HeLa cells (CCL-2; host or cells: HeLa cells stimulated with human IFN-γ
Experimental: Brief descriptions of the cellular assays are provided following the table.
Compounds of the present invention were tested via high-throughput cellular assays utilizing detection of kynurenine via mass spectrometry and cytotoxicity as end-points. For the mass spectrometry and cytotoxicity assays, human epithelial HeLa cells (CCL-2; ATCC®, Manassas, Va.) were stimulated with human interferon-γ (IFN-γ) (Sigma-Aldrich Corporation, St. Louis, Mo.) to induce the expression of indoleamine 2,3-dioxygenase (IDO1). Compounds with IDO1 inhibitory properties decreased the amount of kynurenine produced by the cells via the tryptophan catabolic pathway. Cellular toxicity due to the effect of compound treatment was measured using CellTiter-Glo® reagent (CTG) (Promega Corporation, Madison, Wis.), which is based on luminescent detection of ATP, an indicator of metabolically active cells.
In preparation for the assays, test compounds were serially diluted 3-fold in DMSO from a typical top concentration of 5 mM and plated at 0.5 μL in 384-well, polystyrene, clear bottom, tissue culture treated plates with lids (Greiner Bio-One, Kremsmünster, Austria) to generate 11-point dose response curves. Low control wells (0% kynurenine or 100% cytotoxicity) contained either 0.5 μL of DMSO in the presence of unstimulated (−IFN-γ) HeLa cells for the mass spectrometry assay or 0.5 μL of DMSO in the absence of cells for the cytotoxicity assay, and high control wells (100% kynurenine or 0% cytotoxicity) contained 0.5 μL of DMSO in the presence of stimulated (+IFN-γ) HeLa cells for both the mass spectrometry and cytotoxicity assays.
Frozen stocks of HeLa cells were washed and recovered in DMEM high glucose medium with HEPES (Thermo Fisher Scientific, Inc., Waltham, Mass.) supplemented with 10% v/v certified fetal bovine serum (FBS) (Thermo Fisher Scientific, Inc., Waltham, Mass.), and 1× penicillin-streptomycin antibiotic solution (Thermo Fisher Scientific, Inc., Waltham, Mass.). The cells were diluted to 100,000 cells/mL in the supplemented DMEM medium. 50 μL of either the cell suspension, for the mass spectrometry assay, or medium alone, for the cytotoxicity assay, were added to the low control wells, on the previously prepared 384-well compound plates, resulting in 5,000 cells/well or 0 cells/well respectively. IFN-γ was added to the remaining cell suspension at a final concentration of 10 nM, and 50 μL of the stimulated cells were added to all remaining wells on the 384-well compound plates. The plates, with lids, were then placed in a 37° C., 5% CO2 humidified incubator for 2 days.
Following incubation, the 384-well plates were removed from the incubator and allowed to equilibrate to room temperature for 30 minutes. For the cytotoxicity assay, CellTiter-Glo® was prepared according to the manufacturer's instructions, and 10 μL were added to each plate well. After a twenty minute incubation at room temperature, luminescence was read on an EnVision® Multilabel Reader (PerkinElmer Inc., Waltham, Mass.). For the mass spectrometry assay, 10 μL of supernatant from each well of the compound-treated plates were added to 40 μL of acetonitrile, containing 10 μM of an internal standard for normalization, in 384-well, polypropylene, V-bottom plates (Greiner Bio-One, Kremsmünster, Austria) to extract the organic analytes. Following centrifugation at 2000 rpm for 10 minutes, 10 μL from each well of the acetonitrile extraction plates were added to 90 μL of sterile, distilled H2O in 384-well, polypropylene, V-bottom plates for analysis of kynurenine and the internal standard on the RapidFire 300 (Agilent Technologies, Santa Clara, Calif.) and 4000 QTRAP MS (SCIEX, Framingham, Mass.). MS data were integrated using Agilent Technologies' RapidFire Integrator software, and data were normalized for analysis as a ratio of kynurenine to the internal standard. […]

Sequence of indoleamine 2,3-dioxygenase (IDO1) (P14902 whole entry): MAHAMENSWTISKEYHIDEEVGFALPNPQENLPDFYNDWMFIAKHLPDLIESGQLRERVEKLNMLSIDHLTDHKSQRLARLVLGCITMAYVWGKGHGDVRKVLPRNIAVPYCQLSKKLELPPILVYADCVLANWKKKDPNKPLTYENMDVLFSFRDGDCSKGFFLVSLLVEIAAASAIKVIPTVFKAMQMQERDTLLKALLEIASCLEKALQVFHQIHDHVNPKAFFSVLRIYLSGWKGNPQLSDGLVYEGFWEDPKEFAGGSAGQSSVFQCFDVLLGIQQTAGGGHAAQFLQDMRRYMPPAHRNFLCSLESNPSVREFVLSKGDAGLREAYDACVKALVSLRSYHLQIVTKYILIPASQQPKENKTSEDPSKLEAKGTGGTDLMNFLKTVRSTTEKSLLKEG

| IC50 [nM] | SMILES |
| --- | --- |
| > 10000 | CC(C)(C)Sc1ccc(-c2ccccc2-c2nn[nH]n2)cc1NC(=O)Cc1cnccn1 [Example 5, N-(4-(tert-butylthio)-2′-(2H-tetrazol-5-yl)-[1,1′-biphenyl]-3-yl)-2-(pyrazin-2-yl)acetamide] |
| 6310 | CC(C)(C)Sc1ccc(-c2ccccc2-c2nn[nH]n2)cc1NC(=O)Cc1ccncc1 [Example 6, N-(4-(tert-butylthio)-2′-(2H-tetrazol-5-yl)-[1,1′-biphenyl]-3-yl)-2-(pyridin-4-yl)acetamide] |
| 5010 | CC(C)(C)Sc1ccc(-c2ccccc2-c2nn[nH]n2)cc1NC(=O)Cc1ccc(C#N)cc1 [Example 7, N-(4-(tert-butylthio)-2′-(2H-tetrazol-5-yl)-[1,1′-biphenyl]-3-yl)-2-(4-cyanophenyl)acetamide] |
| 6310 | Cc1cc(CC(=O)Nc2cc(-c3ccccc3-c3nn[nH]n3)ccc2SC(C)(C)C)on1 [Example 8, N-(4-(tert-butylthio)-2′-(2H-tetrazol-5-yl)-[1,1′-biphenyl]-3-yl)-2-(3-methylisoxazol-5-yl)acetamide] |
| > 10000 | CC(C)(C)Sc1ccc(-c2ccccc2-c2nn[nH]n2)cc1NC(=O)Cc1cncnc1 [Example 9, N-(4-(tert-butylthio)-2′-(2H-tetrazol-5-yl)-[1,1′-biphenyl]-3-yl)-2-(pyrimidin-5-yl)acetamide] |
| 1000 | COCCCSc1ccc(-c2ccccc2-c2nn[nH]n2)cc1NC(=O)Cc1ccc(C)cc1 [Example 11, N-(4-((3-methoxypropyl)thio)-2′-(2H-tetrazol-5-yl)-[1,1′-biphenyl]-3-yl)-2-(p-tolyl)acetamide] |
| 5010 | Cc1ccc(CC(=O)Nc2cc(-c3ccccc3-c3nn[nH]n3)ccc2SC2CCOCC2)cc1 [Example 12, N-(4-((tetrahydro-2H-pyran-4-yl)thio)-2′-(2H-tetrazol-5-yl)-[1,1′-biphenyl]-3-yl)-2-(p-tolyl)acetamide] |
| 2510 | CC(C)(C)Sc1ccc(-c2ccccc2-c2nn[nH]n2)cc1NC(=O)CC1CC1 [Example 17, N-(4-(tert-butylthio)-2′-(2H-tetrazol-5-yl)-[1,1′-biphenyl]-3-yl)-2-cyclopropylacetamide] |
| 3980 | CC(C)(C)Sc1ccc(-c2ccccc2-c2nn[nH]n2)cc1NC(=O)CC1CCCCC1 [Example 18, N-(4-(tert-butylthio)-2′-(2H-tetrazol-5-yl)-[1,1′-biphenyl]-3-yl)-2-cyclohexylacetamide] |
| 20 | Cc1ccc(CC(=O)Nc2cc(-c3ccccc3-c3nn[nH]n3)ccc2SC(C)(C)C)cc1F [Example 21, N-(4-(tert-butylthio)-2′-(2H-tetrazol-5-yl)-[1,1′-biphenyl]-3-yl)-2-(3-fluoro-4-methylphenyl)acetamide] |
| 31.6 | COc1ccc(CC(=O)Nc2cc(-c3ccccc3-c3nn[nH]n3)ccc2SC(C)(C)C)cc1 [Example 22, N-(4-(tert-butylthio)-2′-(2H-tetrazol-5-yl)-[1,1′-biphenyl]-3-yl)-2-(4-methoxyphenyl)acetamide] |
| 63.1 | COc1ccc(CC(=O)Nc2cc(-c3ccccc3-c3nn[nH]n3)ccc2SC(C)(C)C)cc1F [Example 23, N-(4-(tert-butylthio)-2′-(2H-tetrazol-5-yl)-[1,1′-biphenyl]-3-yl)-2-(3-fluoro-4-methoxyphenyl)acetamide] |
| 398 | CC(C)(C)Sc1ccc(-c2ccccc2-c2nn[nH]n2)cc1NC(=O)Cc1ccc(F)cc1 [Example 24, N-(4-(tert-butylthio)-2′-(2H-tetrazol-5-yl)-[1,1′-biphenyl]-3-yl)-2-(4-fluorophenyl)acetamide] |
| 398 | CC(C)(C)Sc1ccc(-c2ccccc2-c2nn[nH]n2)cc1NC(=O)Cc1ccccc1 [Example 25, N-(4-(tert-butylthio)-2′-(2H-tetrazol-5-yl)-[1,1′-biphenyl]-3-yl)-2-phenylacetamide] |
| 794 | Cc1ccc(CC(=O)Nc2cc(-c3ccccc3-c3nn[nH]n3)ccc2SC(C)(C)C)nc1 [Example 26, N-(4-(tert-butylthio)-2′-(2H-tetrazol-5-yl)-[1,1′-biphenyl]-3-yl)-2-(5-methylpyridin-2-yl)acetamide] |
| 5010 | CC(C)(C)OC(=O)N1CCC(CC(=O)Nc2cc(-c3ccccc3-c3nn[nH]n3)ccc2SC(C)(C)C)CC1 [Example 29] |
| > 10000 | CC(C)(C)Sc1ccc(-c2ccccc2-c2nn[nH]n2)cc1NC(=O)CC1CCNCC1 [Example 30, N-(4-(tert-butylthio)-2′-(2H-tetrazol-5-yl)-[1,1′-biphenyl]-3-yl)-2-(piperidin-4-yl)acetamide Hydrochloride] |
| > 10000 | CC(=O)N1CCC(CC(=O)Nc2cc(-c3ccccc3-c3nn[nH]n3)ccc2SC(C)(C)C)CC1 [Example 31, 2-(1-Acetylpiperidin-4-yl)-N-(4-(tert-butylthio)-2′-(2H-tetrazol-5-yl)-[1,1′-biphenyl]-3-yl)acetamide] |
| > 10000 | CC(C)(C)Sc1ccc(-c2ccccc2-c2nn[nH]n2)cc1NC(=O)CC1CCN(S(C)(=O)=O)CC1 [Example 32, N-(4-(tert-butylthio)-2′-(2H-tetrazol-5-yl)-[1,1′-biphenyl]-3-yl)-2-(1-(methylsulfonyl)piperidin-4-yl)acetamide] |
| 7940 | COCC(=O)Nc1cc(-c2ccccc2-c2nn[nH]n2)ccc1SC(C)(C)C [Example 33, N-(4-(tert-butylthio)-2′-(2H-tetrazol-5-yl)-[1,1′-biphenyl]-3-yl)-2-methoxyacetamide] |
| 100 | CC(C)(C)Sc1ccc(-c2ccccc2-c2nn[nH]n2)cc1NC(=O)Cc1ccc2c(c1)OCO2 [Example 38, 2-(Benzo[d][1,3]dioxol-5-yl)-N-(4-(tert-butylthio)-2′-(2H-tetrazol-5-yl)-[1,1′-biphenyl]-3-yl)acetamide] |
| 126 | CC(C)(C)Sc1ccc(-c2ccccc2-c2nn[nH]n2)cc1Nc1nc(Cl)ns1 [Example 42, N-(4-(tert-butylthio)-2′-(2H-tetrazol-5-yl)-[1,1′-biphenyl]-3-yl)-3-chloro-1,2,4-thiadiazol-5-amine] |
| 2510 | CC(CC(=O)O)c1ccc(SC(C)(C)C)c(Nc2nc(Cl)ns2)c1 (stereo not drawn) [Example 45, 3-(4-(tert-Butylthio)-3-((3-chloro-1,2,4-thiadiazol-5-yl)amino)phenyl)butanoic Acid] |
| 1000 | Cc1ccc(CC(=O)Nc2cc(-c3ccccc3-c3nnn(COP(=O)(OC(C)(C)C)OC(C)(C)C)n3)ccc2SC(C)(C)C)cc1 [Example 49, di-tert-butyl ((5-(4′-(tert-butylthio)-3′-(2-(p-tolyl)acetamido)-[1,1′-biphenyl]-2-yl)-2H-tetrazol-2-yl)methyl) phosphate] |
| 126 | Cc1ccc(CC(=O)Nc2cc(-c3ccccc3-c3nnnn3COP(=O)(OC(C)(C)C)OC(C)(C)C)ccc2SC(C)(C)C)cc1 [Example 50, di-tert-butyl ((5-(4′-(tert-butylthio)-3′-(2-(p-tolyl)acetamido)-[1,1′-biphenyl]-2-yl)-1H-tetrazol-1-yl)methyl) phosphate] |
| 25.1 | CC(=O)OCn1nnc(-c2ccccc2-c2ccc(SC(C)(C)C)c(NC(=O)Cc3ccc(C)cc3)c2)n1 [Example 57, (5-(4′-(tert-Butylthio)-3′-(2-(p-tolyl)acetamido)-[1,1′-biphenyl]-2-yl)-2H-tetrazol-2-yl)methyl Acetate] |
| 39.8 | CC(=O)OCn1nnnc1-c1ccccc1-c1ccc(SC(C)(C)C)c(NC(=O)Cc2ccc(C)cc2)c1 [Example 58, (5-(4′-(tert-butylthio)-3′-(2-(p-tolyl)acetamido)-[1,1′-biphenyl]-2-yl)-1H-tetrazol-1-yl)methyl Acetate] |
